Source: patent publication US11938133B2, “Stable pharmaceutical composition for oral administration” (ASTELLAS PHARMA INC., priority 2015, dated 2024)

Key:
[1] = Calculation of proportion of crystals by near-infrared spectroscopy; format: physicochemical; details: Compound A hemifumarate after water was added to the crystals and dried (material used for Examples 4 to 15)
Protocol: As a method of calculating the proportion of crystals of Compound A hemifumarate in Compound A hemifumarate, for example, the spectrum is measured, as a near-infrared spectroscopy measurement, by a Fourier transform near-infrared spectrometer (MPA, Bruker Optics K. K.)(measurement range; 12500 cm^−1 to 5800 cm^−1, resolution; 8 cm^−1, number of scans; 32), and the obtained spectrum is secondary-differentiated (Savitzky-Golay convolution method), and can be analyzed using a near-infrared spectrum analysis software (for example, OPUS, Bruker Optics K. K.). The pharmaceutical composition for oral administration is powdered using a mortar and pestle to measure the spectrum. Before the spectrum measurement of the pharmaceutical composition for oral administration, spectra of preparations, in which crystals of Compound A hemifumarate are mixed in various proportions, are regression-analyzed by a partial least square method to create a calibration curve, and each spectrum obtained from the pharmaceutical composition for oral administration is interpolated into the calibration curve to calculate the proportion of crystals of Compound A hemifumarate.
With respect to the tablets (film coated tablets) prepared in Comparative Example 1, Example 1, Example 2, and Example 3, the proportion of crystals of Compound A hemifumarate after production was calculated by near-infrared spectroscopy. […]

[2] = Stability of drug substance alone in heat and humidity (severity test or the like); format: physicochemical; details: certain storage conditions such as a severity test
[3] = tested on: EML4 (Echinoderm microtubule associated protein like-4)-ALK (Anaplastic lymphoma kinase) fusion protein; details: reported in Patent literature 1 (WO 2010/128659); cited from earlier work

Proportion of crystals [1] [%]	Stability of drug substance alone (in words) [2]	Compound	Inhibitory activity of a kinase activity of EML4-ALK fusion protein [3]
62	stable in heat and humidity alone	CCc1nc(C(N)=O)c(Nc2ccc(N3CCC(N4CCN(C)CC4)CC3)c(OC)c2)nc1NC1CCOCC1 [Compound A hemifumarate]	–
–	–	CCc1nc(C(N)=O)c(Nc2ccc(N3CCC(N4CCN(C)CC4)CC3)c(OC)c2)nc1NC1CCOCC1 [Compound A, 6-Ethyl-3-({3-methoxy-4-[4-(4-methylpiperazin-1-yl)piperidin-1-yl]phenyl}amino)-5-(tetrahydro-2H-pyran-4-ylamino)pyrazine-2-carboxamide]	inhibitory activity
